Laboratory results from patent US7026347B2, “Porphyrin-polyamine conjugates for cancer therapy” (CellGate, Inc., priority 2002, dated 2006).

What was measured:
Type in all cases: cell-based
[1] = tested on: Panc-1 human pancreatic cancer cells; test: MTT assay, human pancreatic cancer cell growth, Panc-1; conditions: 144 h, Panc-1 cells, MTT six days after drug treatment, read-out: ID50(μM) values for Human Pancreatic Cancer Cell Lines Panc-1
Procedure: (§1) A conventional MTT assay was used to evaluate percent cell survival. Exponentially growing monolayer cells were plated in 96-well plates at a density of 500 cells per well and allowed to grow for 24 hours. Serial dilutions of the drugs were added to the wells. Six days after drug treatment, 25 μl of MTT solution (5 mg/ml) was added to each well and incubated for 4 hours at 37° C. Then 100 μl of lysis buffer (20% sodium dodecyl sulfate, 50% DMF, and 0.8% acetic acid, pH 4.7) was added to each well and incubated for an additional 22 hours. A microplate reader (“EMAX”-brand, Molecular Devices, Sunnyvale, Calif.) set at 570 nm was used to determine the optical density of the cultures. Results are expressed as a ratio of the optical density in drug-treated wells to the optical density in wells treated with vehicle only. FIGS. 1–13 also indicate the effects of the compounds on various cell lines.

[2] = tested on: DuPro human prostate tumor cells; test: MTT assay, human prostate tumor cell growth, DuPro; conditions: 144 h, MTT six days after drug treatment, read-out: ID50 (μM) values for Human prostate tumor Cell Lines DuPro
Procedure: as §1

[3] = tested on: BxPC-3 human pancreatic cancer cells; test: MTT assay, human pancreatic cancer cell growth, BxPC-3; conditions: 144 h, BxPC-3 cells, MTT six days after drug treatment, read-out: ID50(μM) values for Human Pancreatic Cancer Cell Lines BxPC-3
Procedure: as §1

[4] = tested on: PC-3 human prostate tumor cells; test: MTT assay, human prostate tumor cell growth, PC-3; conditions: 144 h, PC-3 cells, MTT six days after drug treatment, read-out: ID50 (μM) values for Human prostate tumor Cell Lines PC-3
Procedure: as §1

[5] = tested on: Human Brain Tumor Cells U251MG NCI; test: MTT assay, human brain tumor cell growth, U251MG NCI; conditions: U-251, 144 h, MTT six days after drug treatment, read-out: ID50(μM) values for Human Brain Tumor Cells U251MG NCI
Procedure: as §1

[6] = tested on: Tsu-pr1-ADR human prostate tumor cells; test: MTT assay, human prostate tumor cell growth, Tsu-pr1-ADR; conditions: 144 h, MTT six days after drug treatment, read-out: ID50 (μM) values for Human prostate tumor Cell Lines Tsu-pr1-ADR
Procedure: as §1

[7] = tested on: Tsu-pr1 human prostate tumor cells; test: MTT assay, human prostate tumor cell growth, Tsu-pr1; conditions: 144 h, MTT six days after drug treatment, read-out: ID50 (μM) values for Human prostate tumor Cell Lines Tsu-pr1
Procedure: as §1

For `CCNCCCCNCC1CC1CNCCCCN(CC)C(=O)CCC1=C(C)c2cc3[nH]c(cc4nc(cc5[nH]c(cc1n2)c(CCC(=O)N(CC)CCCCNCC1CC1CNCCCCNCC)c5C)C(CC)=C4C)c(CC)c3C` (stereo not drawn) [SL-11217], the IC50 [1] was 6.38 µM, the IC50 [2] was 3.6 µM and the IC50 [3] was 6.87 µM. For the same compound, the IC50 [4] was 2.8 µM and the IC50 [5] was 5.65 µM.

Work on `CCCCCCCCCCCCCC1CCN(CCCNC(=O)CCC2=C(C)c3cc4[nH]c(cc5nc(cc6[nH]c(cc2n3)c(CCC(=O)NCCCN2CCCN(C)CCCCN(C)CCCN(C)C(CCCCCCCCCCCCC)CC2)c6C)C(CC)=C5C)c(CC)c4C)CCCN(C)CCCCN(C)CCCN1C` (stereo not drawn) [SL-11237] yielded an IC50 [6] of 12.6 µM, an IC50 [7] of 1.87 µM and an IC50 [1] of 12.5 µM. It also gave an IC50 [2] of 1.9 µM, an IC50 [3] of 5.92 µM and an IC50 [4] of 1.7 µM. It also gave an IC50 [5] of 2.3 µM.
